Source: US20060142171A1, “Novel alkaline protease” (priority 2003, published 2006)
Starred links: 1 amine or outer side, 2 acyl side, 3 side chain; linkers in the order of their positions; H or OH if unused. Non-standard residues stand in square brackets, D forms with d. Residues, ends and D or L forms follow the SMILES beside them. *: point of attachment. Sta = CC(C)C[C@H](N)[C@@H](O)CC(=O)O; pNA = O=[N+]([O-])c1ccc(N*)cc1; Suc = O=C(CCC(=O)[*:2])[*:1]; Isovaleryl = CC(C)CC(=O)*

Key:
[1] = biological target: T1, AL protease (Nesterenkonia aethiopica, UniProt D0VWT7); experiment: Assay with synthetic peptide, pNA, AMC, NNap and ester substrates (kinetic parameters); assay type: biochemical, Nesterenkonia sp. AL; settings: for Hydrolysis of synthetic substrate by AL protease: result in words
T1 sequence (D0VWT7 entry or part of it): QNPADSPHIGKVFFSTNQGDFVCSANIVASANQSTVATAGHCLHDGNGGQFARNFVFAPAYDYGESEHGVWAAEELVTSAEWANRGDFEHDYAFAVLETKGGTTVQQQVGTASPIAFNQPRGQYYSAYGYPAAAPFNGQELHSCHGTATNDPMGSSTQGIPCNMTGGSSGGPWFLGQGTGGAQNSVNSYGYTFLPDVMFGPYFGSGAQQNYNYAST
Experimental: The AL protease activity toward a variety of commercially available synthetic peptide substrates was assayed. The incubation volume was always 1 ml in which 10 μl enzyme solution; 0.76 mg protein/ml was used unless otherwise stated. Initial reaction rates were fitted to the Michaelis-Menten equation, and kinetic parameters, kcat and Km were determined.
Fluorometric assay for Suc-L-Y-AMC, Suc-A-A-F-AMC, Suc-I-I-W-AMC, Suc-A-A-K-AMC, NA-Bz-R-AMC, Suc-L-L-V-Y-AMC, Suc-F-G-L-β-NNap, Suc-L-β-NNap (Sigma) was performed in 50 mM glycine-NaOH buffer, pH 10 at 25° C. The substrate concentration range was from 0.05 to 10 mM except for Suc-L-L-V-Y-AMC (0.1-25 μM). Fluorescence was monitored with a SPEX Fluorolog spectrometer, in a 1×1 cm quartz cuvette placed in a thermostat cuvette holder, using excitation wavelength of 345 nm, emission wavelength 442 nm slit width 5 nm for AMC substrate and excitation wavelength of 340 nm, emission wavelength of 410 and slit width 5 nm for β-NNap substrates. A standard solution of AMC and β-naphthylamine was used to convert the fluorescence values to product concentrations.
Activity with p-nitroanilide substrates was tested at 25° C. in 50 mM Tris-HCl buffer, pH 9. Following substrates were used: Bz-Tyr-pNA (Sigma), BAPNA, Suc-Phe-pNA, Suc-A-A-P-F-pNA, Suc-A-A-P-L-pNA, Suc-G-G-G-pNA, Suc-A-A-A-pNA, Suc-A-A-V-pNA (Bachem Feinchemikalien AG (Bubendorf, Switzerland), and S-benzyl-L-cysteine-4-nitroanilide (Fluka Chemie AG, Buchs, Switzerland). The release of p-nitroanilide (pNA) was measured at 410 nm. Extinction coefficient (E) of pNA was taken to be 8480 M^−1 cm^−1. Initial reaction rates were determined over a concentration range of 0.05-10 mM for most substrates, excluding Suc-A-A-P-L-pNA (0.05-20 mM), and S-benzyl-L-Cysteine-4-nitroanilide (0.05-80 mM).
Hydrolytic activity of the enzyme on the ester substrates, BAEE, BTEE, Bz-F-NE, p-nitrophenyl acetate, p-nitrophenyl butyrate and Suc-F-L-F-SBzl (Sigma) was examined spectrophotometrically at 410 nm (ε410=900 M^−1cm^−1) in 50 mM Tris-HCl buffer, pH 9 at 25° C. and 50° C. respectively. The substrates concentration range between 0.05 to 10 mM. The Initial hydrolysis of BAEE, Suc-F-L-F-SBzl was followed at 253 nm (ε253=1150 M^−1cm^−1) and BTEE at 259 nm (ε259=964 M^−1cm^−1), at which their extinction coefficients were taken in calculation.
Due to the poor aqueous solubility of some of the substrates, their stock solutions were prepared in organic solvents, and further dilution was done with the used buffer. Suc-F-G-L-β-NNap, Suc-L-L-V-Y-AMC, Suc-L-Y-AMC, Suc-A-A-F-AMC, Suc-I-I-W-AMC, Suc-A-A-K-AMC, NA-Bz-R-AMC and Bz-Tyr-pNA, Suc-F-L-F-SBzl and Bz-F-βNE were dissolved in dimethylsulfoxide (DMSO), Suc-Phe-pNA, BTEE and BAPNA in ethanol, Suc-A-A-A-pNA in N,N-dimethylformamide (DMF), and Bz-Cys-NA in acetonitrile.
In these cases the kcat/Km was calculated from velocity measurements at low substrate concentration [S]<<Km, where v=(kcat/Km)[E]0 [S].

[2] = biological target: T1, AL protease; experiment: biochemical; assay type: biochemical, Nesterenkonia sp. AL
Experimental: (§1) Protease activity was determined using casein as substrate as described earlier [3.12]. The reaction mixture in a total volume of 2 ml was composed of 1% casein, 50 mM glycine-NaOH buffer, pH 10, and appropriately diluted enzyme. After 20 min incubation at 50° C. the reaction was terminated by adding equal volume of 10% trichloroacetic acid (TCA). After separation of the unreacted casein precipitate by centrifugation, 0.5 ml of clear supernatant was mixed with 2.5 ml of 0.5 M Na2CO3 and 0.5 ml of 1 N Folin-Ciocalteau's phenol reagent. After 30 min at 25° C., absorbance was measured at 660 nm against a reagent blank. One unit of protease activity was defined as the amount of enzyme that released 1 μg of amino acid equivalent to tyrosine per min under the standard assay conditions.
(§2) AL protease was also not inhibited by inhibitors of cysteine proteases, aspartate proteases and metal proteases (Table 5). The effect of another serine protease specific inhibitor, 3,4-dichlorocoumarin at a concentration of 100 μM on the protease activity was investigated.

[3] = tested on: AL-89 protease; experiment: Effect of protease inhibitors on AL-89 protease activity; assay type: biochemical, Bacillus pseudofirmus AL-89; settings: for Remaining activity (%): AL-89 protease, incubated 1 h at 30° C.
Experimental: as §1, §2

[4] = AL protease, inhibitor 10 mM, incubated 1 h at 30° C.
[5] = substrate marked a (footnote not given), AMC substrate, 50 mM glycine-NaOH buffer, pH 10 at 25° C.
[6] = substrate marked b (footnote not given), pNA and ester substrates, 50 mM Tris-HCl buffer, pH 9

For “N-succinyl-Gly-Gly-Gly-p-nitroanilide (Suc-Gly-Gly-Gly-pNA; SMILES O=C(O)CCC(=O)NCC(=O)NCC(=O)NCC(=O)Nc1ccc([N+](=O)[O-])cc1) [Suc-G-G-G-pNA]”, the “Hydrolysis of synthetic substrate by AL protease” value (shortened to “Hydrolysis of synthetic substrate”) [1] was “unable to hydrolyze”.
`N=C(N)NCCCC(NC(=O)c1ccccc1)C(=O)Nc1ccc([N+](=O)[O-])cc1` (racemic) [BAPNA, Nα-benzoyl-D,L-arginine-p-nitroanilide] was tested, and the “Hydrolysis of synthetic substrate” value [1] was “did not show detectable activity”.
In the case of “N-Succinyl-Ala-Ala-Ala-p-nitroanilide [Suc-A-A-A-pNA]”, the “Hydrolysis of synthetic substrate” value [1] is reported as “unable to hydrolyze”.
With “N-succinyl-Ala-Ala-Val-p-nitroanilide (Suc-Ala-Ala-Val-pNA; SMILES CC(C)[C@H](NC(=O)[C@H](C)NC(=O)[C@H](C)NC(=O)CCC(=O)O)C(=O)Nc1ccc([N+](=O)[O-])cc1) [Suc-A-A-V-pNA]” the “Hydrolysis of synthetic substrate” value [1] was “unable to hydrolyze”.
With `O=S(=O)(F)Cc1ccccc1` [PMSF, phenyl-methanesulfonyl fluoride] the “Remaining activity (%)” value ([2]; AL protease, inhibitor 1 mM, incubated 1 h at 30° C.) was 100%, the “Remaining activity (%)” value [2, 4] was 108% and the “Inhibition of AL protease activity” value ([2]; result in words, PMSF up to 10 mM, others at concentrations of Table 5) was “did not inhibit”. The “Remaining activity (%)” value ([3]; inhibitor 1 mM) was 0%, the “Remaining activity (%)” value ([3]; inhibitor 10 mM) was 0% and the “Inhibition of AL-89 protease activity” value ([3]; result in words, 1 mM) was “totally inhibited”.
`O=C(O)CN(CCN(CC(=O)O)CC(=O)O)CC(=O)O` [EDTA, ethylenediamino tetraacetate] was tested, and the “Remaining activity (%)” value [2, 4] was 99% and the “Remaining activity (%)” value ([3]; inhibitor 10 mM) was 98%.
“N-succinyl-Leu-Leu-Val-Tyr-7-amino-4-methyl coumarin [Suc-L-L-V-Y-AMC]” was tested, and the “kcat/Km higher than that for Suc-A-A-P-F-pNA and Suc-A-A-P-L-pNA” value ([1]; AL protease) was 2.5-5 fold, the “Hydrolysis of synthetic substrate” value [1] was “remarkable hydrolyzing activity” and the Km [1, 5] was 0.015 mM. The kcat [1, 5] was 51.68 s⁻¹.
For “N-succinyl-Ala-Ala-Pro-Leu-p-nitroanilide (Suc-AAPL-pNA; SMILES CC(C)C[C@H](NC(=O)[C@@H]1CCCN1C(=O)[C@H](C)NC(=O)[C@H](C)NC(=O)CCC(=O)O)C(=O)Nc1ccc([N+](=O)[O-])cc1) [Suc-A-A-P-L-pNA]”, the “Hydrolysis of synthetic substrate” value [1] was “remarkable hydrolyzing activity”, the Km [1, 6] was 9.3 mM and the kcat [1, 6] was 6646.19 s⁻¹.
In the case of `O=C(O)CCC(=O)N[C@@H](Cc1ccccc1)C(=O)Nc1ccc([N+](=O)[O-])cc1` [Suc-Phe-pNA, N-succinyl-phenylalanine-p-nitroanilide], the “Hydrolysis of synthetic substrate” value [1] is reported as “did not show detectable activity”.
In the case of `c1cnc2c(c1)ccc1cccnc12` [1,10-Phenanthroline], the remaining activity at 10000 µM [2, 4] is reported as 113% and the “Remaining activity (%)” value ([3]; inhibitor 10 mM) is reported as 75%.
In the case of “N-succinyl-Ala-Ala-Pro-Phe-p-nitroanilide (Suc-AAPF-pNA) [Suc-A-A-P-F-pNA]”, the “Hydrolysis of synthetic substrate” value [1] is reported as “remarkable hydrolyzing activity”, the Km [1, 6] is reported as 2.97 mM and the kcat [1, 6] is reported as 4391.46 s⁻¹.
In the case of `O=C(O)c1cc[c]([Hg][Cl])cc1` [PCMBA], the “Remaining activity (%)” value ([2]; AL protease, inhibitor 5 mM, incubated 1 h at 30° C.) is reported as 99% and the “Remaining activity (%)” value ([3]; inhibitor 5 mM) is reported as 91%.
In the case of `CC(C)CC(=O)N[C@H](C(=O)N[C@H](C(=O)N[C@@H](CC(C)C)[C@@H](O)CC(=O)N[C@@H](C)C(=O)N[C@@H](CC(C)C)[C@@H](O)CC(=O)O)C(C)C)C(C)C` [Pepstatin] (Isovaleryl-VV[Sta]A[Sta]-OH), the remaining activity at 100 µM ([2]; AL protease, inhibitor 0.1 mM, incubated 1 h at 30° C.) is reported as 102% and the “Remaining activity (%)” value ([3]; inhibitor 0.1 mM) is reported as 100%.
`CC(=O)Oc1ccc([N+](=O)[O-])cc1` [p-nitrophenyl acetate] was tested, and the “Hydrolysis of synthetic substrate” value [1] was “unable to cleave”.
